Common to all, as to assay: growth of human tumour cells (NCI), 48 h
The subject of assay [1] is HCC 2998.
The test system of assay [2] is CCRF-CEM.
The test system of assay [3] is HT-29.
In assay [4] the test system is EKVX.
Assay [5] concerns LOX IMVI.
In assay [6] the test system is SF-539.
The subject of assay [7] is OVCAR-3.
In assay [8] the test system is UACC-62.
In assay [9] the test system is K562.
Assay [10] relates to SW-620.
Assay [11] has as its system COLO 205.
The test system of assay [12] is Hs-578T.
Assay [13] has as its system A549.
For assay [14], the system named is NCI/ADR-RES.
The subject of assay [15] is U-251.
Assay [16] relates to OVCAR-8.
Assay [17] relates to DU-145.
In assay [18] the test system is UACC-257.
For assay [19], the system named is UO-31.
In assay [20] the test system is NCI-H522.

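Compound exposure: 48 hours, 5 concentrations, 96-well plates. Here, GI50 denotes the concentration required for 50% inhibition of growth.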 Activity calls are given as the source filed them. Rule as the data show it: active = GI50 up to about 1.1 µM and inactive = higher.

With `CC1=CC2(C)C=C[C@@H]1C(=O)[C@@]1(C)CC[C@@](O)(C(C)C)[C@H]1CC2`, the GI50 in assay [1] is 17.5 µM (inactive); in [2], 21.6 µM (inactive); in assay [3], 16.1 µM (inactive); in assay [4], 24.4 µM (inactive); in assay [5] it was 19.1 µM (inactive); in assay [6], 18.9 µM (inactive). Also, the GI50 in assay [7] was 16.1 µM (inactive); in assay [8] it was 20.1 µM (inactive); in [9], 20 µM (inactive); in assay [10], 18.8 µM (inactive); in assay [11], 20.7 µM (inactive); in assay [12], 25.4 µM (inactive). Moreover, the GI50 in [13] was 34.6 µM (inactive); in [14], 20.2 µM (inactive); in assay [15], 18.1 µM (inactive); in [16], 17.1 µM (inactive); in [17], 28.9 µM (inactive); in assay [18], 16.4 µM (inactive). Moreover, in assay [19], the GI50 was 17.6 µM (inactive).
Regarding `Cc1ccc(OCC2CO2)c(Br)c1` (stereo not drawn), the GI50 in [1] is 16 µM (inactive); in assay [2], 27.9 µM (inactive); in [3] it was 12.7 µM (inactive); in [4], 13.8 µM (inactive); in assay [5], 12.1 µM (inactive); in assay [6], 15 µM (inactive). The GI50 in [7] was 25.1 µM (inactive); in [8], 17.7 µM (inactive); in [9], 22.3 µM (inactive); in assay [10], 12.7 µM (inactive); in [11] it was 17.7 µM (inactive); in [12], 28.5 µM (inactive). Also, the GI50 in [13] was 20.3 µM (inactive); in assay [14], 15.8 µM (inactive); in [15], 15.2 µM (inactive); in assay [16] it was 7.8 µM (inactive); in assay [17] it was 38.4 µM (inactive); in assay [18], 37.8 µM (inactive). Moreover, the GI50 in [19] was 18.5 µM (inactive).
With `CON(C)C(=O)C(Cc1ccccc1)NC(=O)OC(C)(C)C` (stereo not drawn), the GI50 in assay [1], in assay [2], in [3], in assay [4], in [6] and in [7] was > 100 µM (inactive) in each case. Besides, the GI50 in assay [8], in assay [9], in assay [10], in assay [11], in assay [12] and in assay [13] was > 100 µM (inactive) throughout. The GI50 in [14], in assay [15], in assay [16], in assay [17], in [18] and in assay [19] was > 100 µM (inactive) in each case.
For `Nc1c2c(nc3cc(F)c(F)cc13)CCC2`, the GI50 in assay [1] is 14.5 µM (inactive); in assay [3], 31.8 µM (inactive); in assay [4], 52.1 µM (inactive); in [5], 36.6 µM (inactive); in [6], 46 µM (inactive); in [7], > 100 µM (inactive). For the same compound, the GI50 was 82.4 µM (inactive) in assay [8]; 72.8 µM (inactive) in assay [20]; 35.3 µM (inactive) in assay [9]; 29.2 µM (inactive) in assay [10]; 43.5 µM (inactive) in assay [11]; > 100 µM (inactive) in assay [12]. Also, the GI50 in assay [13] was 42.2 µM (inactive); in assay [14] it was 60.1 µM (inactive); in assay [15] it was 56.6 µM (inactive); in assay [16] it was 44.5 µM (inactive); in assay [17] it was 52.6 µM (inactive); in assay [18], 44.4 µM (inactive). For the same compound, the GI50 in assay [19] was 4.05 µM (inactive).
As for `CCOC(=O)C1=[N+]([O-])OC2=C(O)CCCC21` (stereo not drawn), the GI50 in assay [1], in [2], in [3], in assay [4], in [5] and in assay [7] was > 100 µM (inactive) throughout. The GI50 in assay [8], in assay [20], in [9], in assay [10], in [11] and in assay [12] was > 100 µM (inactive) throughout. In addition, the GI50 in [13], in assay [14], in assay [15], in assay [16], in assay [17] and in assay [18] was > 100 µM (inactive) in each case. The GI50 in assay [19] was > 100 µM (inactive).
Consider `C[C@]12CC[C@H](OC3OC(CO)C(O)C(O)C3O)C[C@H]1CC[C@@H]1[C@@H]2CC[C@]2(C)[C@@H](C3=CCOC3=O)CC[C@]12O` (stereo partly drawn) [ACTODIGIN], for which the GI50 in [1] was 26.8 µM (inactive); in assay [3], 41.1 µM (inactive); in assay [4] it was 16.5 µM (inactive); in assay [5], 0.495 µM (active); in assay [6] it was 0.447 µM (active); in assay [8] it was 6.64 µM (inactive). Also, the GI50 in [20] is 16.8 µM (inactive); in assay [9], 21.5 µM (inactive); in assay [10], 18.6 µM (inactive); in [11], 16.9 µM (inactive); in [12], 40.9 µM (inactive); in [13] it was 15.7 µM (inactive). For the same compound, the GI50 in assay [14] is 24.4 µM (inactive); in assay [15], 4.73 µM (inactive); in assay [17] it was > 100 µM (inactive); in assay [19] it was 40.3 µM (inactive).
With `Oc1nc(-c2ccc3ccccc3c2)nc2ccccc12`, the GI50 is 62.5 µM (inactive) in [1]; 57.7 µM (inactive) in assay [3]; 43.5 µM (inactive) in assay [4]; > 100 µM (inactive) in assay [5]; 35.4 µM (inactive) in assay [7]; > 100 µM (inactive) in [8]. Also, the GI50 in assay [20] is 73.8 µM (inactive); in assay [9] it was > 100 µM (inactive); in assay [10] it was > 100 µM (inactive); in assay [11] it was > 100 µM (inactive); in [12], 24.3 µM (inactive); in assay [13], 26.9 µM (inactive). In addition, the GI50 in assay [14] is 20 µM (inactive); in assay [15], 25.5 µM (inactive); in [16], 12.7 µM (inactive); in assay [17], > 100 µM (inactive); in [18] it was 74.6 µM (inactive); in assay [19], 23.4 µM (inactive).
Regarding `C#C[C@]1(O)CC[C@H]2[C@@H]3CCC4=C/C(=N/OCCN(C)C)CC[C@]4(C)[C@H]3CC[C@@]21C`, the GI50 was 41 µM (inactive) in assay [1]; 16.3 µM (inactive) in assay [2]; 6.78 µM (inactive) in [3]; 32.3 µM (inactive) in assay [4]; 37.8 µM (inactive) in assay [5]; 22 µM (inactive) in assay [7]. Further, the GI50 was 32.5 µM (inactive) in assay [8]; 16.3 µM (inactive) in assay [20]; 6.82 µM (inactive) in [9]; 28.1 µM (inactive) in assay [10]; 26.7 µM (inactive) in [11]; 26.9 µM (inactive) in [12]. The GI50 was 31.7 µM (inactive) in [13]; 41.7 µM (inactive) in assay [14]; 33.6 µM (inactive) in assay [15]; 49.7 µM (inactive) in assay [16]; 22.3 µM (inactive) in [17]; 52.5 µM (inactive) in assay [18]. For the same compound, the GI50 in assay [19] was 62.5 µM (inactive).
In the case of `O=[N+]([O-])c1ccc(N/N=C2/CC3=C2CCCCCCCCCC3)c([N+](=O)[O-])c1`, the GI50 in [1], in assay [2], in assay [3], in [4], in [7] and in [8] was > 100 µM (inactive) throughout. For the same compound, the GI50 was > 100 µM (inactive) in [20]; > 100 µM (inactive) in [9]; > 100 µM (inactive) in assay [10]; > 100 µM (inactive) in [11]; 39.3 µM (inactive) in assay [12]; > 100 µM (inactive) in [13]. In addition, the GI50 in assay [14], in [15], in assay [16], in assay [17], in assay [18] and in assay [19] was > 100 µM (inactive) each time.
For `CC(NC(=O)C(N)CC(=O)O)NC(=O)N1CCOCC1` (stereo not drawn), the GI50 in [2], in [3], in assay [4], in assay [5], in [6] and in assay [7] was > 100 µM (inactive) each time. Moreover, the GI50 in [8] was 19.1 µM (inactive); in [20], > 100 µM (inactive); in [9], > 100 µM (inactive); in assay [10], > 100 µM (inactive); in assay [11], > 100 µM (inactive); in [12], > 100 µM (inactive). For the same compound, the GI50 in [13], in assay [14], in assay [15], in assay [16], in [17] and in assay [18] was > 100 µM (inactive) each time. The GI50 in [19] is > 100 µM (inactive).
In the case of `CC(=O)N1N=C(c2cc(C)ccc2O)CC1c1cccc(Cl)c1` (stereo not drawn), the GI50 was 13.4 µM (inactive) in [2]; 6.97 µM (inactive) in [3]; 24.1 µM (inactive) in assay [4]; 12.5 µM (inactive) in [5]; 19.2 µM (inactive) in assay [6]; 32.1 µM (inactive) in assay [7]. Also, the GI50 in assay [8] is 7.6 µM (inactive); in assay [20], 3.07 µM (inactive); in assay [9], 4.05 µM (inactive); in assay [10] it was 7.74 µM (inactive); in assay [11], 6.93 µM (inactive); in assay [12], 12.9 µM (inactive). Further, the GI50 in assay [13] is 11.8 µM (inactive); in assay [14], 6.03 µM (inactive); in assay [15] it was 13.8 µM (inactive); in assay [16], 27.4 µM (inactive); in assay [17] it was 51.9 µM (inactive); in [18] it was 14.2 µM (inactive). Moreover, the GI50 in assay [19] was 17.4 µM (inactive).

The values are drawn from ChEMBL document CHEMBL1201862, “PubChem BioAssay data set” (2004).
